Source: patent US8436180B2, “Substituted-4-aryl-1,4-dihydro-1,6-naphthyridinamides and use thereof” (Bayer Intellectual Property GmbH, priority 2007, dated 2013)

What was measured:
[1] = molecular target: T1, human mineralocorticoid receptor (MR) (Homo sapiens, UniProt P08235); assay: Cellular in vitro assay to determine the inhibitory MR activity (GAL4-MR chimera luciferase reporter in CHO K1 cells); assay type: cell-based; details: antagonism of aldosterone-stimulated luciferase activity
T1 construct: expressed in transfected cells; host or cells: CHO K1 (Chinese hamster ovary), stably transfected
T1 sequence (P08235 734-984 limits assumed): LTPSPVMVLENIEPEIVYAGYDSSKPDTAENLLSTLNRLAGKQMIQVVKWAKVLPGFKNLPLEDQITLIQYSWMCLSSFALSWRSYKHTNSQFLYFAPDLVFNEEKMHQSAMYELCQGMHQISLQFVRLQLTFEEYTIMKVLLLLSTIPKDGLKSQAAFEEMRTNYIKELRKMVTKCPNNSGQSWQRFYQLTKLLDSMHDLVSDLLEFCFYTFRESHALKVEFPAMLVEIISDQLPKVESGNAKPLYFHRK
Text: 1. Cellular In Vitro Assay to Determine the Inhibitory MR Activity and MR Selectivity Compared with Other Steroid Hormone Receptors
Antagonists of the human mineralocorticoid receptor (MR) are identified, and the activity of the compounds described herein is quantified with the aid of a recombinant cell line. The cell is originally derived from a hamster ovary epithelial cell (Chinese Hamster Ovary, CHO K1, ATCC: American Type Culture Collection, VA 20108, USA).
An established chimera system in which the ligand-binding domains of human steroid hormone receptors are fused to the DNA-binding domain of the yeast transcription factor GAL4 is used in this CHO K1 cell line. The GAL4-steroid hormone receptor chimeras produced in this way are cotransfected and stably expressed with a reporter construct in the CHO cells.
To generate the GAL4-steroid hormone receptor chimeras, the GAL4 DNA binding domain (amino acids 1-147) from the vector pFC2-dbd (from Stratagene) is cloned with the PCR-amplified ligand-binding domains of the mineralocorticoid receptor (MR, amino acids 734-985), of the glucocorticoid receptor (GR, amino acids 443-777), of the progesterone receptor (PR, amino acids 680-933) and of the androgen receptor (AR, amino acids 667-919) into the vector pIRES2 (from Clontech). […]
The MR, GR, PR and AR cells are plated out in medium (Optimem, 2.5% FCS, 2 mM glutamine, 10 mM HEPES) in 96- (or 384- or 1536-) well microtiter plates on the day before the assay and are kept in a cell incubator (96% humidity, 5% v/v CO2, 37° C.). […] After a further incubation time of 5 to 6 hours, the luciferase activity is measured with the aid of a video camera. The measured relative light units as a function of the substance concentration result in a sigmoidal stimulation curve. The IC50 values are calculated with the aid of the GraphPad PRISM computer program (Version 3.02).

[2] = tested on: aldosterone-induced sodium retention; assay: In vivo assay for detecting anti-mineralocorticoid activity on anesthetized dogs; design: species or system dog; details: anesthetized dogs under continuous aldosterone infusion (0.6 μg/kg/h); positive control
Experimental: In Vivo Assay for Detecting Anti-Mineralocorticoid Activity on Anesthetized Dogs
Male or female mongrel dogs (mongrels, Marshall BioResources, USA) with a weight between 20 and 30 kilograms are anesthetized with pentobarbital (30 mg/kg intravenously; Narcoren®, Merial, Germany). Alcuronium chloride (3 mg/animal intravenously; Alloferin®, ICN Pharmaceuticals, Germany) is used in addition as muscle relaxant. The dogs are intubated and ventilated with an oxygen/ambient air mixture (40/60 Vol.-%) (about 5-6 liters/min). The ventilation takes place with a ventilator supplied by Draeger (Sulla 808) and is monitored with a CO2 analyzer (from Engstrom). […]
The primary aim of the test is to investigate the effect of test compounds with antimineralocorticoid receptor activity on the aldosterone-induced sodium retention. […] A continuous infusion of aldosterone (0.6 μg/kg/h) leads after 3 hours to a decrease in the sodium/potassium ratio in the urine (sodium and potassium are determined by flame photometry). […]
The primary signals are amplified if necessary (Gould amplifier, Gould Instrument Systems, Valley View, USA or Edwards Vigilance-Monitor, Edwards, Irvine, USA) and subsequently fed into the Ponemah system (DataSciences Inc., Minneapolis, USA) for analysis. The signals are recorded continuously throughout the test period, further processed digitally by this software and averaged over 30 seconds.

Work on `CCOc1ncc(C)c2c1C(c1ccc(C#N)cc1OC)C(C(N)=O)=C(C)N2` (racemic) [Example 4, 4-(4-Cyano-2-methoxyphenyl)-5-ethoxy-2,8-dimethyl-1,4-dihydro-1,6-naphthyridine-3-carboxamide] yielded an IC50 [1] of 23 nM.
`CCOc1nccc2c1C(c1ccc(C#N)cc1OC)C(C(N)=O)=C(C)N2` (stereo not shown) [Example 1, 4-(4-Cyano-2-methoxyphenyl)-5-ethoxy-2-methyl-1,4-dihydro-1,6-naphthyridine-3-carboxamide] showed an IC50 [1] of 35 nM.
With `CCOc1ncc(C)c2c1[C@H](c1ccc(C#N)cc1OC)C(C(N)=O)=C(C)N2` [5 [(−)-enantiomer]] the IC50 [1] was 16 nM.
For `CC(=O)S[C@@H]1CC2=CC(=O)CC[C@]2(C)[C@H]2CC[C@@]3(C)[C@@H](CC[C@@]34CCC(=O)O4)[C@H]12` [Spironolactone], the “sodium/potassium ratio in the urine” value [2] was “increases the sodium/potassium ratio in the urine dose-dependently”.
